Experimental data taken from patent publication US10266549B2, “ULK1 inhibitors and methods using same” (SALK INSTITUTE FOR BIOLOGICAL STUDIES, priority 2014, dated 2019).

Each compound was assayed against ULK1 (Homo sapiens (Human), UniProt O75385) (assay: ULK1 inhibition assay (Table 1)). Settings: * = tested as a mixture of regioisomers.
Chain of ULK1 (O75385 whole entry, species assumed): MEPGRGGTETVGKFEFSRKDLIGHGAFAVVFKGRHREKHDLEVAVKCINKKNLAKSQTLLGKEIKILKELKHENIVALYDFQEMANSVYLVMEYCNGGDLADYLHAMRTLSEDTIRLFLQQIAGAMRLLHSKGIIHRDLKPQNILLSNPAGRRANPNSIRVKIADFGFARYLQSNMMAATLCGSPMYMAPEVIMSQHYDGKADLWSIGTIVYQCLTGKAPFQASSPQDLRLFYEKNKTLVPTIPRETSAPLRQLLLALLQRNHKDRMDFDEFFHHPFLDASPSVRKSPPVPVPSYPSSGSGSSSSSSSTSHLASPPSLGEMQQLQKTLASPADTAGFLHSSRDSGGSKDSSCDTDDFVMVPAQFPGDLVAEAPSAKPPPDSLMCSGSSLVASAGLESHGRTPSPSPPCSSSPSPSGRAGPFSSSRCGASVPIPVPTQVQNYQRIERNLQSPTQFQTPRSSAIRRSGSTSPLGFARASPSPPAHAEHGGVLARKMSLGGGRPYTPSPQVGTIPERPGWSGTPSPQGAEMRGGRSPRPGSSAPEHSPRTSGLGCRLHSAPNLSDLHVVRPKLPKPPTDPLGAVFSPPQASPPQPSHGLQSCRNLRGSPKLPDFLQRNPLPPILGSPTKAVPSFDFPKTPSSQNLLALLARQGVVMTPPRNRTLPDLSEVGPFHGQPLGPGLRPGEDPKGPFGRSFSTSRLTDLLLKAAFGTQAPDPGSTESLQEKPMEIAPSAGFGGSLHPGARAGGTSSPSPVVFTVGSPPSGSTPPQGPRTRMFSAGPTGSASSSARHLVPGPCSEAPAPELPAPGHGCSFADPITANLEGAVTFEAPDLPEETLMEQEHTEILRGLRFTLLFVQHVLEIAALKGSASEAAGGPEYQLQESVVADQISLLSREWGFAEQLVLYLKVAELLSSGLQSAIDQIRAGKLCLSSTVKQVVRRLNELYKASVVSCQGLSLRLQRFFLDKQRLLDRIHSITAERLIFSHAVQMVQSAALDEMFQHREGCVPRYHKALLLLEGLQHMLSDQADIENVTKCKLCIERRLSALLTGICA
Type: biochemical
`COc1cc(Nc2ncc(Br)c(Nc3ccccn3)n2)cc(OC)c1OC` [compound 22, Bromo-N^4-(pyridin-2-yl)-N^2-(3,4,5-trimethoxyphenyl) pyrimidine-2,4-diamine] gave an IC50 of under 200 nM.
Work on `COc1ccc(C)c(Nc2ncc(Cl)c(Nc3ccc(OC)nc3)n2)c1` [compound 34, 5-Chloro-N^2-(5-methoxy-2-methylphenyl)-N^4-(6-methoxypyridin-3-yl)pyrimidine-2,4-diamine] yielded an IC50 of over 2000 nM.
Compound `O=C1CCc2cc(Nc3ncc(C(F)(F)F)c(Nc4ccc5c(c4)CCC5)n3)ccc2N1` [compound 129, 6-((4-((2,3-dihydro-1H-inden-5-yl)amino)-5-(trifluoromethyl)pyrimidin-2-yl)amino)-3,4-dihydroquinolin-2(1H)-one] has an IC50 of under 200 nM.
`COc1ccc(C)c(Nc2ncc(Cl)c(NCc3cccc(S(C)(=O)=O)c3)n2)c1` [compound 41, 5-Chloro-N^2-(5-methoxy-2-methylphenyl)-N^4-(3-(methylsulfonyl)benzyl)pyrimidine-2,4-diamine] showed an IC50 of over 2000 nM.
For `CNC(=O)c1ccccc1Oc1nc(Nc2ccc(Cl)c(Cl)c2)ncc1C(F)(F)F` [108a, 2-((2-((3,4-dichlorophenyl)amino)-5-(trifluoromethyl)pyrimidin-4-yl)oxy)-N-methylbenzamide], the IC50 was over 2000 nM.
With `CS(=O)(=O)c1cccc(CNc2nc(Nc3ccc4c(c3)CCC(=O)N4)ncc2F)c1` [compound 56, 6-((5-Fluoro-4-((3-(methylsulfonyl)benzyl)amino)pyrimidin-2-yl)amino)-3,4-dihydroquinolin-2(1H)-one] the IC50 was over 2000 nM.
In the case of `CNC(=O)c1ccccc1Nc1nc(Nc2cc(OC)ccc2C)ncc1Cl` [compound 16, 2-(5-Chloro-2-(5-methoxy-2-methylphenylamino)pyrimidin-4-ylamino)-N-methylbenzamide], the IC50 is reported as under 200 nM.
`CS(=O)(=O)c1cccc(CNc2nc(Nc3ccc4c(c3)CCC(=O)N4)ncc2C(F)(F)F)c1` [compound 32, 6-(4-(3-(Methylsulfonyl)benzylamino)-5-(trifluoromethyl)pyrimidin-2-ylamino)-3,4-dihydroquinolin-2(1H)-one] showed an IC50 of 200 to 2000 nM.
Work on `Cc1ccc(Nc2nc(Nc3ccc4c(c3)CCC(=O)N4)ncc2C(F)(F)F)cc1C` [compound 125, 6-((4-((3,4-dimethylphenyl)amino)-5-(trifluoromethyl)pyrimidin-2-yl)amino)-3,4-dihydroquinolin-2(1H)-one] yielded an IC50 of under 200 nM.
In the case of `O=C1CCc2cc(Nc3ncc(C(F)(F)F)c(OCc4ccccc4)n3)ccc2N1` [compound 81, 6-(4-(Benzyloxy)-5-(trifluoromethyl)pyrimidin-2-ylamino)-3,4-dihydroquinolin-2(1H)-one], the IC50 is reported as under 200 nM.
In the case of `COCCNc1nc(Nc2ccc3c(c2)CCC(=O)N3)ncc1C(F)(F)F` [151a, 6-((4-((2-methoxyethyl)amino)-5-(trifluoromethyl)pyrimidin-2-yl)amino)-3,4-dihydroquinolin-2(1H)-one], the IC50 is reported as under 200 nM.
`CNC(=O)c1ccccc1Oc1nc(Nc2cccc(F)c2F)ncc1C(F)(F)F` [compound 113, 2-((2-((2,3-difluorophenyl)amino)-5-(trifluoromethyl)pyrimidin-4-yl)oxy)-N-methylbenzamide] showed an IC50 of over 2000 nM.
Work on `FC(F)(F)c1cnc(Nc2cnc3[nH]ccc3c2)nc1NC1CC1` [152a, N^4-cyclopropyl-N^2-(1H-pyrrolo[2,3-b]pyridin-5-yl)-5-(trifluoromethyl)pyrimidine-2,4-diamine] yielded an IC50 of under 200 nM.
`COc1cccc(Nc2nc(Nc3ccc4c(c3)CCC(=O)N4)ncc2C(F)(F)F)c1` [compound 119, 6-((4-((3-methoxyphenyl)amino)-5-(trifluoromethyl)pyrimidin-2-yl)amino)-3,4-dihydroquinolin-2(1H)-one] was tested, and the IC50 was under 200 nM.
With `COc1ccc(Nc2nc(Nc3ccc4[nH]ccc4c3)ncc2Cl)cn1` [compound 29, 5-Chloro-N^2-(1H-indol-5-yl)-N^4-(6-methoxypyridin-3-yl) pyrimidine-2,4-diamine] the IC50 was 200 to 2000 nM.
`FC(F)(F)c1cnc(NC2Cc3ccccc3C2)nc1Nc1ccc2c(c1)OCO2` [163a, N^4-(benzo[d][1,3]dioxol-5-yl)-N^2-(2,3-dihydro-1H-inden-2-yl)-5-(trifluoromethyl)pyrimidine-2,4-diamine] showed an IC50 of over 2000 nM.
`CS(=O)(=O)c1cccc(CNc2nc(Nc3ccc4c(c3)CC(=O)N4)ncc2C(F)(F)F)c1` [compound 33, 5-((4-((3-(Methylsulfonyl)benzyl)amino)-5-(trifluoromethyl)pyrimidin-2-yl)amino)indolin-2-one] was tested, and the IC50 was 200 to 2000 nM.
Compound `O=C1CCc2cc(Nc3ncc(C(F)(F)F)c(CCc4ccccc4)n3)ccc2N1` [compound 66, 6-((4-Phenethyl-5-(trifluoromethyl)pyrimidin-2-yl)amino)-3,4-dihydroquinolin-2(1H)-one] has an IC50 of 200 to 2000 nM.
For `FC(F)(F)c1cnc(NC2CCC2)nc1NC1CCC1` [168c, N^2,N^4-dicyclobutyl-5-(trifluoromethyl) pyrimidine-2,4-diamine], the IC50 was 200 to 2000 nM.
Compound `O=C1CCc2cc(Nc3ncc(C(F)(F)F)c(Nc4cccc5ccccc45)n3)ccc2N1` [126a, 6-((4-(naphthalen-1-ylamino)-5-(trifluoromethyl)pyrimidin-2-yl)amino)-3,4-dihydroquinolin-2(1H)-one] has an IC50 of 200 to 2000 nM.
`O=C1CCc2cc(Nc3ncc(C(F)(F)F)c(SCc4ccccc4)n3)ccc2N1` [compound 62, 6-(4-(Benzylthio)-5-(trifluoromethyl)pyrimidin-2-ylamino)-3,4-dihydroquinolin-2(1H)-one] gave an IC50 of under 200 nM.
`FC(F)(F)c1cnc(Nc2ccc3c(c2)OCO3)nc1NC1CCC1` [168b, N^2-(benzo[d][1,3]dioxol-5-yl)-N^4-cyclobutyl-5-(trifluoromethyl)pyrimidine-2,4-diamine] was tested, and the IC50 was 200 to 2000 nM.
`FC(F)(F)c1cnc(Nc2ccc3c(c2)OCCO3)nc1NC1CC1` [158a, N^4-cyclopropyl-N^2-(2,3-dihydrobenzo[b][1,4]dioxin-6-yl)-5-(trifluoromethyl)pyrimidine-2,4-diamine] was tested, and the IC50 was under 200 nM.
In the case of `FC(F)(F)c1cnc(Nc2cnc3[nH]ccc3c2)nc1NC1CCC1` [161a, N^4-cyclobutyl-N^2-(1H-pyrrolo[2,3-b]pyridin-5-yl)-5-(trifluoromethyl)pyrimidine-2,4-diamine], the IC50 is reported as under 200 nM.
For `FC(F)(F)c1cnc(Nc2ccc3c(c2)OCO3)nc1N1CCC1` [166b, 4-(azetidin-1-yl)-N-(benzo[d][1,3]dioxol-5-yl)-5-(trifluoromethyl)pyrimidin-2-amine], the IC50 was under 200 nM.
In the case of `COc1cccc(Nc2ncc(Cl)c(Nc3cccc(OC)c3)n2)c1` [143b, 5-chloro-N^2,N^4-bis(3-methoxyphenyl) pyrimidine-2,4-diamine], the IC50 is reported as under 200 nM.
With `COc1ccc(Nc2nc(Nc3cc(OC)c(OC)c(OC)c3)ncc2Br)cn1` [compound 25, 5-Bromohloro-N^4-(6-methoxypyridin-3-yl)-N^2-(3,4,5-trimethoxyphenyl)pyrimidine-2,4-diamine] the IC50 was under 200 nM.
With `FC(F)Oc1ccccc1Nc1ncc(C(F)(F)F)c(Nc2ccccc2OC(F)F)n1` [120b, N^2,N^4-bis(2-(difluoromethoxy)phenyl)-5-(trifluoromethyl)pyrimidine-2,4-diamine] the IC50 was 200 to 2000 nM.
“N2-(2-methoxy-5-methylphenyl)-N4-(3-(methylsulfonyl) benzyl)-5-(trifluoromethyl)pyrimidine-2,4-diamine [compound 50]” gave an IC50 of over 2000 nM.

What follows are compounds tested on PC3 human prostate cells stably expressing GFP-LC3 (assay: GFP-LC3 puncta quantification in PC3 cells). Settings: PC3 GFP-LC3, control siRNAs, 1 μM mTOR inhibitor for 4 hr.
Type: cell-based
Description: At 48 hr after RNAi transfection, the cells were treated with 1 μM of the catalytic mTOR inhibitors AZD8055 or INK128 for 4 hr and assessed for the presence of GFP-LC3 puncta. The average number of GFPLC3 puncta and SD for each siRNA and drug treatment are shown. SRC, c-Src; c-Src kinase, CSK.
To test the ability of compound 14 to block autophagy and cell survival, initial studies were performed in A549 lung cancer cells, which are highly sensitive to mTOR inhibition. […] Next, we genetically assessed the requirement for ULK1 versus other kinases inhibited by compound 14 to induce autophagy after pharmacological mTOR inhibition. A robust high-throughput microscopy method for quantifying GFP-LC3 puncta was established using a PC3 prostate-cancer cell line stably expressing a GFP-LC3 construct. Using this assay, we performed a focused RNAi analysis of the top 20 kinases identified in the DiscovRx screen as best binding to compound 14. […] Strikingly, of the 18 kinases tested, only one kinase siRNA, ULK1, nearly fully abolished the LC3 puncta induced by the mTOR inhibitors (FIG. 9D).
With `CC(C)n1nc(-c2ccc3oc(N)nc3c2)c2c(N)ncnc21` [INK128, 3-(2-amino-5-benzoxazolyl)-1-(1-methylethyl)-1H-pyrazolo[3,4-d]pyrimidin-4-amine] the “induction in GFP-LC3 puncta formation” value was 2 fold.
